{"source": "the supplement of paper PMC10307832", "test_in_all_cases": "relative viability (nuclei count vs DMSO), 5 days (fraction); higher = more cells survive", "key": {"[1]": {"compound": "Cc1ccc2nc(NCCN)c3ncc(C)n3c2c1 + C[C@@H](Oc1cc(-c2cnn(C3CCNCC3)c2)cnc1N)c1c(Cl)ccc(F)c1Cl [Crizotinib] (partner 1 µM)", "summary_of_the_method": "(§1)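 Lung cancer cell lines were pin-tool dosed in 1536-well plates on the day after seeding, with either a lone drug or a fixed anchor-drug dose plus five library-drug doses (not always all listed) in √10 steps. Nuclei were counted on 4× images after 5 days. Relative viability is the ratio of treated-well to vehicle-well nuclei counts, with each value a median of duplicate plates.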"}, "Salubrinal + Trametinib": {"compound": "O=C(/C=C/c1ccccc1)NC(NC(=S)Nc1cccc2cccnc12)C(Cl)(Cl)Cl [Salubrinal] + CC(=O)Nc1cccc(-n2c(=O)n(C3CC3)c(=O)c3c(Nc4ccc(I)cc4F)n(C)c(=O)c(C)c32)c1 [Trametinib] (partner 0.02 µM)", "summary_of_the_method": "as §1"}, "Salubrinal + Palbociclib": {"compound": "O=C(/C=C/c1ccccc1)NC(NC(=S)Nc1cccc2cccnc12)C(Cl)(Cl)Cl [Salubrinal] + CC(=O)c1c(C)c2cnc(Nc3ccc(N4CCNCC4)cn3)nc2n(C2CCCC2)c1=O [Palbociclib] (partner 0.5 µM)", "summary_of_the_method": "as §1"}, "Salubrinal + Vorinostat": {"compound": "O=C(/C=C/c1ccccc1)NC(NC(=S)Nc1cccc2cccnc12)C(Cl)(Cl)Cl [Salubrinal] + O=C(CCCCCCC(=O)Nc1ccccc1)NO [Vorinostat] (partner 1 µM)", "summary_of_the_method": "as §1"}}, "data": [{"cell line": "UMC-11", "values": [{"measurement": "relative viability", "setting": "[1]; first compound 0.04 µM", "value": 0.7}, {"measurement": "relative viability", "setting": "[1]; first compound 0.1265 µM", "value": 0.57}, {"measurement": "relative viability", "setting": "[1]; first compound 0.4 µM", "value": 0.6}, {"measurement": "relative viability", "setting": "[1]; first compound 1.265 µM", "value": 0.646}, {"measurement": "relative viability", "setting": "[1]; first compound 4 µM", "value": 0.481}, {"measurement": "relative viability", "setting": "Salubrinal + Trametinib; first compound 0.08 µM", "value": 0.468}, {"measurement": "relative viability", "setting": "Salubrinal + Trametinib; first compound 0.253 µM", "value": 0.749}, {"measurement": "relative viability", "setting": "Salubrinal + Trametinib; first compound 0.8 µM", "value": 0.741}, {"measurement": "relative viability", "setting": "Salubrinal + Trametinib; first compound 2.53 µM", "value": 0.775}, {"measurement": "relative viability", "setting": "Salubrinal + Trametinib; first compound 8 µM", "value": 0.826}, {"measurement": "relative viability", "setting": "Salubrinal + Palbociclib; first compound 0.08 µM", "value": 0.304}, {"measurement": "relative viability", "setting": "Salubrinal + Palbociclib; first compound 0.253 µM", "value": 0.344}, {"measurement": "relative viability", "setting": "Salubrinal + Palbociclib; first compound 0.8 µM", "value": 0.349}, {"measurement": "relative viability", "setting": "Salubrinal + Palbociclib; first compound 2.53 µM", "value": 0.313}, {"measurement": "relative viability", "setting": "Salubrinal + Palbociclib; first compound 8 µM", "value": 0.299}, {"measurement": "relative viability", "setting": "Salubrinal + Vorinostat; first compound 0.08 µM", "value": 0.349}, {"measurement": "relative viability", "setting": "Salubrinal + Vorinostat; first compound 0.253 µM", "value": 0.404}, {"measurement": "relative viability", "setting": "Salubrinal + Vorinostat; first compound 0.8 µM", "value": 0.38}, {"measurement": "relative viability", "setting": "Salubrinal + Vorinostat; first compound 2.53 µM", "value": 0.334}, {"measurement": "relative viability", "setting": "Salubrinal + Vorinostat; first compound 8 µM", "value": 0.398}]}]}
